Target: M. tuberculosis 3β-hydroxysteroid dehydrogenase (Mycobacterium tuberculosis, UniProt P9WQP7)
Assay: 3β-hydroxysteroid dehydrogenase in vitro inhibitory activity assay
Format: biochemical
Conditions: not given

Chain of M. tuberculosis 3β-hydroxysteroid dehydrogenase (P9WQP7 whole entry, looked up): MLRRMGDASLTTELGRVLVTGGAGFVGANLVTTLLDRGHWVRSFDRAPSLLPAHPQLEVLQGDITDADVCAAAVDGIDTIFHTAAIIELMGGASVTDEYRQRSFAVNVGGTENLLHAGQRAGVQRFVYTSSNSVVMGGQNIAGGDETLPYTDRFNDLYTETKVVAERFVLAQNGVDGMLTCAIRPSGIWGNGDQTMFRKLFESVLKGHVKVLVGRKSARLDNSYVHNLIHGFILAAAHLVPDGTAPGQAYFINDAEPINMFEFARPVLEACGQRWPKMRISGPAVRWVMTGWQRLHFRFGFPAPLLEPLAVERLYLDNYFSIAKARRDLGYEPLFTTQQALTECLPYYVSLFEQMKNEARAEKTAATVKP

Row | SMILES | IC50
1 | C[C@]12CCC(=O)C=C1NCC1C2CC[C@@]2(C)C1CC[C@@H]2C(=O)Nc1ccc(N2CCOCC2)cc1 (stereo partly shown) | > 50 µM
2 | CC(C)(C)c1ccc(C(C)(C)C)c(NC(=O)[C@H]2CCC3C4CNC5=CC(=O)CC[C@]5(C)C4CC[C@@]32C)c1 (stereo partly shown) | 1 to 50 µM
3 | CC(C)CCCC(C)[C@H]1CCC2C3CNC4=CC(=O)CC[C@]4(C)C3CC[C@@]21C (stereo partly shown) | < 1 µM
4 | CC(C)(C)c1ccc(C(F)(F)F)cc1NC(=O)[C@H]1CCC2C3CNC4=CC(=O)CC[C@]4(C)C3CC[C@@]21C (stereo partly shown) | 1 to 50 µM

Same assay, conditions: purified enzyme, 150 μM dehydroepiandrosterone, 3.5 mM NAD+, pH 8.5, NADH at 340 nm; read-out: IC50 M. tuberculosis 3β-hydroxysteroid dehydrogenase

Row | SMILES | IC50
5 | CC(C)CCCC(C)[C@H]1CCC2C3C(CC[C@@]21C)[C@@]1(C)CCC(=O)C=C1N[C@H]3C (stereo partly shown) | 1 to 50 µM
6 | C[C@]12CCC(=O)C=C1NCC1C2CC[C@@]2(C)C1CC[C@@H]2C(=O)Nc1ccccc1C(=O)c1ccccc1 (stereo partly shown) | 1 to 50 µM
7 | C[C@]12CCC(=O)C=C1NCC1C2CC[C@@]2(C)C1CC[C@@H]2C(=O)O (stereo partly shown) | > 50 µM
